Measured values published in ChEMBL document CHEMBL1201862, “PubChem BioAssay data set” (2004).
Active and inactive are the calls of the source.

Assays:
[1] = target: T1, Corticotropin-releasing factor receptor 2/Corticotropin-releasing factor-binding protein (Homo sapiens, UniProt P24387+Q13324); test: Dose Response confirmation of uHTS hits for small molecule antagonists of the CRF-binding protein and CRF-R2 receptor complex.; assay type: functional; details: read-out: IC50_Mean
T1 sequence (Q13324 whole entry): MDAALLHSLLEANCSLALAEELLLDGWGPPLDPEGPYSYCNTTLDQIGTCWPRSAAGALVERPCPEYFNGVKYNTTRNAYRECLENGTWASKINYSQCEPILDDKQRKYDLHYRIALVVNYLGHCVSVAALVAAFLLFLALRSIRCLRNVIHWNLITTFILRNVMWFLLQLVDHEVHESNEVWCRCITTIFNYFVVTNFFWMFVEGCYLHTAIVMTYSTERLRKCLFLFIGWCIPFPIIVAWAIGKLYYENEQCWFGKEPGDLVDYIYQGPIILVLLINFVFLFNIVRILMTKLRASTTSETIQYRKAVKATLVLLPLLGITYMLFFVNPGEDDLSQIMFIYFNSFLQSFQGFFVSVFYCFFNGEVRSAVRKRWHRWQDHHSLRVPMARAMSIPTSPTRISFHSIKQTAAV
T1 sequence (P24387 whole entry): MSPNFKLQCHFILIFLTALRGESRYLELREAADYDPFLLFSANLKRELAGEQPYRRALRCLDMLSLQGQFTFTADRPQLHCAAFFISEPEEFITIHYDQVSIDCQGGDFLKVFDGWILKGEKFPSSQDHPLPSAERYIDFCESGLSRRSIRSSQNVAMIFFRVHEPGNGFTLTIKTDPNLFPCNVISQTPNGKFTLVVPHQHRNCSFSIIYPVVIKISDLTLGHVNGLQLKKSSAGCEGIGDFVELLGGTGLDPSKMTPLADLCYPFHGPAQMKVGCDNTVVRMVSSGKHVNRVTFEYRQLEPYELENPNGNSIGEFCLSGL

[2] = target: T1, Corticotropin-releasing factor receptor 2/Corticotropin-releasing factor-binding protein; test: activators of CRF receptor 2 with binding protein – uHTS hits, confirmation (AID 602473); assay type: functional; details: read-out: EC50_Mean
Paired box protein Pax-8 = Paired box protein Pax-8 (Homo sapiens, UniProt Q06710); test: inhibitors of PAX8-driven TPO luciferase reporter, dose response, RMG-I cells, cherry-pick (AID 687027); assay type: functional, cell-based;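 note: luciferase reporter driven by Pax8 target thyroperoxidase promoter measured by SteadyGlo luminescence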
[3] = target: T2, Zinc finger protein mex-5 (Caenorhabditis elegans, UniProt Q9XUB2); test: MEX-5/TCR-2 RNA interaction inhibitors, dose response, biochemical, C. elegans, fluorescence polarization (AID 1960)
T2 sequence (Q9XUB2 whole entry): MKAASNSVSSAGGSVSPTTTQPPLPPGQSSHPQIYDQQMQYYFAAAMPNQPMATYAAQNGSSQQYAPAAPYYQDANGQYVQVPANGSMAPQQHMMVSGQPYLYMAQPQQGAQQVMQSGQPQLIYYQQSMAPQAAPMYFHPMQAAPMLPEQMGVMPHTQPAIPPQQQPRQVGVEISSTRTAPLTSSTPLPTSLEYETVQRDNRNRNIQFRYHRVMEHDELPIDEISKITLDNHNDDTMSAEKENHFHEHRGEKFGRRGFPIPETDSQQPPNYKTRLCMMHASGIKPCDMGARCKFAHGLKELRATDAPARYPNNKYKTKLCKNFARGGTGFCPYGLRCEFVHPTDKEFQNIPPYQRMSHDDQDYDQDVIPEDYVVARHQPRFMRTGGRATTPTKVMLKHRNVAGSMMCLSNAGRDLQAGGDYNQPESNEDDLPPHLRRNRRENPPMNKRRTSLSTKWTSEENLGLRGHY

[4] = target: T3, RNA-binding protein pos-1 (Caenorhabditis elegans, UniProt G5EF15); test: inhibitors of POS-1/mex-3 RNA binding, dose response, biochemical, fluorescence polarization (AID 1964);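 note: purified POS-1 fused to maltose binding protein made in E. coli; potency of compounds blocking POS-1 binding to fluorescent RNA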
T3 sequence (G5EF15 whole entry): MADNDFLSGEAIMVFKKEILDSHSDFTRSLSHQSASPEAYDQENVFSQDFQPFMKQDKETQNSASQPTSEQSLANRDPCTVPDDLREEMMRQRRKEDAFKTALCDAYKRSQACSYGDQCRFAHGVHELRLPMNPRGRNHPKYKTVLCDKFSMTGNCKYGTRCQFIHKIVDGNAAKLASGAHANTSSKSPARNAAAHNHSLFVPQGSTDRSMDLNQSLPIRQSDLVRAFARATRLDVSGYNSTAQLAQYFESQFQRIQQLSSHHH

[5] = control 3'UTR Renilla luciferase suppression, dose response, counter-screen for Shn3 inhibitor project, cell-based, Clone20-Shn3RL, cherry-picked (AID 624133); assay type: functional
[6] = Shn3 3'UTR reporter inhibitors, dose response, cell-based, Clone20 osteoblasts, firefly luciferase, cherry-picked (AID 624132); assay type: functional;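 note: firefly luciferase luminescence from reporter carrying the Shn3 3'UTR in osteoblasts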
[7] = HepG2 cell cytotoxicity, dose response, cytotoxicity control for Shn3 inhibitor project, CellTiter-Glo, cherry-picked (AID 624134); assay type: functional, cell-based
[8] = target: T4, Polyadenylate-binding protein 1 (Homo sapiens, UniProt P11940); test: PABP1 MLLE–PAM2 interaction inhibitors, dose response, miRNA deadenylation inhibitor project, biochemical, fluorescence polarization, Cy5-PAM2 peptide, secondary (AID 602260); assay type: functional; details: read-out: IC50_Mean
[9] = target: T4, Polyadenylate-binding protein 1; test: PABP1 MLLE–PAM2 binding inhibitor potency, dose response, biochemical, fluorescence polarization, FITC-PAM2 peptide (AID 602259); assay type: functional; details: read-out: IC50_Mean
Cytochrome P450 1A2 = target: T5, Cytochrome P450 1A2 (Homo sapiens, UniProt P05177);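 note: PubChem cytochrome P450 panel assay, CYP1A2 panel member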
T5 sequence (P05177 whole entry): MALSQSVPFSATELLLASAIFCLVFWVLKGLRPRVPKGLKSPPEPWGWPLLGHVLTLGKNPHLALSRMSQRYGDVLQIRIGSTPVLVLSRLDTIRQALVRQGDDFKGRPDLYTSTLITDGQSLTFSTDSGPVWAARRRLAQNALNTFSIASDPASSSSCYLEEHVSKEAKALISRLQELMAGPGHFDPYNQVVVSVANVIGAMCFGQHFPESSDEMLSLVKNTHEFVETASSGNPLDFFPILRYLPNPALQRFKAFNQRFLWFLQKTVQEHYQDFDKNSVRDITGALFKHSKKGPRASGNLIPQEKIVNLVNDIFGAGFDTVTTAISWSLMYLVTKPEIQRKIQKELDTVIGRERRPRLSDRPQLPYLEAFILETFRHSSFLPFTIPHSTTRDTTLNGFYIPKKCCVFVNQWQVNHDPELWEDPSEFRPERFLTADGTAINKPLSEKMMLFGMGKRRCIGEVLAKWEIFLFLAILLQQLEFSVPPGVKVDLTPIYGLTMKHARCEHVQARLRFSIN

Cytochrome P450 2C9 = Cytochrome P450 2C9 (Homo sapiens, UniProt P11712)
Cytochrome P450 3A4 = Cytochrome P450 3A4 (Homo sapiens, UniProt P08684);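 note: CYP3A4 tested as one member of a cytochrome P450 panel screen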
Cytochrome P450 2D6 = Cytochrome P450 2D6 (Homo sapiens, UniProt P10635);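 note: CYP2D6 member of a cytochrome P450 panel assay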
Sequence of Cytochrome P450 2D6 (P10635 whole entry): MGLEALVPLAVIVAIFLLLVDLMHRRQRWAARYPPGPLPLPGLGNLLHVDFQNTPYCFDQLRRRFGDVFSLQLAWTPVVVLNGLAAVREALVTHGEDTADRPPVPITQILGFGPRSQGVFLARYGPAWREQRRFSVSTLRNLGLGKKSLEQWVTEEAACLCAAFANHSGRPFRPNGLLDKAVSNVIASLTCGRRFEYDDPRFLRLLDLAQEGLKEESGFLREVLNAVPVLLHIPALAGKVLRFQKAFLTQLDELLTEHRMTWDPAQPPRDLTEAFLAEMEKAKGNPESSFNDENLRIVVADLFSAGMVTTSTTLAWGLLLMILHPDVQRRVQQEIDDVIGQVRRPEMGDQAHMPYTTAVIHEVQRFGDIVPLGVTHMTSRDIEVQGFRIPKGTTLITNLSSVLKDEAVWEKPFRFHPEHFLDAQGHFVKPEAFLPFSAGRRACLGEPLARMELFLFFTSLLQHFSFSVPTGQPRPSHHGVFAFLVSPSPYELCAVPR

Sequence of Cytochrome P450 3A4 (P08684 whole entry): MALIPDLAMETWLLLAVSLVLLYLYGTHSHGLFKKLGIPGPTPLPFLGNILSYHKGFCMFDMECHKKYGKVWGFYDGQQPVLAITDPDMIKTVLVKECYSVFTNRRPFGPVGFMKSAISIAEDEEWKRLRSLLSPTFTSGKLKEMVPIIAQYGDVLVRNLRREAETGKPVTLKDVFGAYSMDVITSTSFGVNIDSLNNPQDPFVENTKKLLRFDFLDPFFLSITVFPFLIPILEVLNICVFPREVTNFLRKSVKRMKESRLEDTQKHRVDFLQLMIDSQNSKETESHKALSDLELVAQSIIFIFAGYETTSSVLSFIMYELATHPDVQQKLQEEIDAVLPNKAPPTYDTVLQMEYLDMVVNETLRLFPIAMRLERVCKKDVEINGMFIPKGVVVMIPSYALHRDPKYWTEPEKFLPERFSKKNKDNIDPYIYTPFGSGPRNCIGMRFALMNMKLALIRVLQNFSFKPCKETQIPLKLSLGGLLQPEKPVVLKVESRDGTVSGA
Sequence of Cytochrome P450 2C9 (P11712 whole entry): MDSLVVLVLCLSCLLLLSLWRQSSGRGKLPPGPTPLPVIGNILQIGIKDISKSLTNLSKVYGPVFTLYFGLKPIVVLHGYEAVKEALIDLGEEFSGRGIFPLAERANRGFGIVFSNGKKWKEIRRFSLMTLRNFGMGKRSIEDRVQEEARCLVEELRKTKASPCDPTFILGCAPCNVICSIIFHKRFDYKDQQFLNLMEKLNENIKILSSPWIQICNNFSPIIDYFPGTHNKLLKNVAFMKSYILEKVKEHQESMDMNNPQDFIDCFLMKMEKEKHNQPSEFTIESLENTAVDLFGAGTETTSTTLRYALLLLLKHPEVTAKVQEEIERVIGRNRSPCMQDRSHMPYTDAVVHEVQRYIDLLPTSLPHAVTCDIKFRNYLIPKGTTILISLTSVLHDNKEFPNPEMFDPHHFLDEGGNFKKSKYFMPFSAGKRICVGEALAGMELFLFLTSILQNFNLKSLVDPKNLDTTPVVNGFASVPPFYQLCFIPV
Sequence of Paired box protein Pax-8 (Q06710 whole entry): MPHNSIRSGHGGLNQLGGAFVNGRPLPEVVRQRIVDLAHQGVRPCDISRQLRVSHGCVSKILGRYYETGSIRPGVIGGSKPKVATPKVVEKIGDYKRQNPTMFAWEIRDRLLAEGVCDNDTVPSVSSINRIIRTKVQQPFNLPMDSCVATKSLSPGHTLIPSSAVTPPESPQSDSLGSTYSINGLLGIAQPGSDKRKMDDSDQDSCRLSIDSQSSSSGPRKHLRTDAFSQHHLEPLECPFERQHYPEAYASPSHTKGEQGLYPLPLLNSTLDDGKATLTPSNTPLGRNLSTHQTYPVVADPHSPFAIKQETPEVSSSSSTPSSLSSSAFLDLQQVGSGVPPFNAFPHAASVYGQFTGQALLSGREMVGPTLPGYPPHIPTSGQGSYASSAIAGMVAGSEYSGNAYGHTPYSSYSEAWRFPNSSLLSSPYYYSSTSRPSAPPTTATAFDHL
T4 sequence (P11940 whole entry): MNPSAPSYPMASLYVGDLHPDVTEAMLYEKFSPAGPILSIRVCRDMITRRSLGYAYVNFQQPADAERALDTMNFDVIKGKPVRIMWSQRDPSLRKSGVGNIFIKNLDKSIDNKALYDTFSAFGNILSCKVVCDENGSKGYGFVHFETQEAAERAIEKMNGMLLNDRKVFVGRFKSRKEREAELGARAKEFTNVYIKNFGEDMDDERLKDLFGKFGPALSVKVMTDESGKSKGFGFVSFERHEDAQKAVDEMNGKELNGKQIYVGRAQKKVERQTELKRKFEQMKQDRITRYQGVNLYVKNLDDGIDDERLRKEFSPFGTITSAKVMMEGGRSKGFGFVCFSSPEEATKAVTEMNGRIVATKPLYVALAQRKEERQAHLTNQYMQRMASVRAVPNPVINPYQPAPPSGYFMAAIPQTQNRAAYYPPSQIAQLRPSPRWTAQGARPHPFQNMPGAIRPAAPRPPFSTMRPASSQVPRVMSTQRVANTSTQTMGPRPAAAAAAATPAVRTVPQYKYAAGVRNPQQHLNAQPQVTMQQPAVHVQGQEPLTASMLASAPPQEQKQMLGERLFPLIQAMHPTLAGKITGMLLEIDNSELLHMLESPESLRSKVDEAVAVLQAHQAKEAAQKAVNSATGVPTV

Cc1cccc(C)c1N1CCN(C(=O)c2ccc3c(c2)OCO3)CC1
IC50 [1]: > 47.1 µM (inactive)
EC50 [2]: > 53 µM (inactive)

C[C@@H]1CCCCO[C@@H](CN(C)Cc2ccc(Cl)c(Cl)c2)[C@H](C)CN([C@@H](C)CO)C(=O)c2cc(NS(=O)(=O)c3ccccc3)ccc2O1
AC50 (Paired box protein Pax-8): 13.4 µM (active)

COC(=O)Cc1ccc(NC(=S)NCCC(C)C)cc1
IC50 [1]: > 47.1 µM (inactive)
EC50 [2]: > 53 µM (inactive)

Nc1ncnc(NNC(=O)CNC(=O)c2c(F)cccc2Cl)c1[N+](=O)[O-]
EC50 [3]: 0.241 µM (active)
EC50 [4]: 0.548 µM (active)
IC50 [1]: > 47.1 µM (inactive)
EC50 [2]: > 53 µM (inactive)

OC(c1cc(-c2cccc(Cl)c2)nc2ccccc12)C1CCCCN1 (centres undefined)
AC50 [5]: 15.4 µM (active)
AC50 [6]: 10.8 µM (active)
AC50 [7]: 16 µM (active)

COCCn1c(=N)c(C(=O)NCc2ccco2)cc2c(=O)n3cc(C)ccc3nc21
IC50 [8]: 33.2 µM (inactive)
IC50 [1]: > 47.1 µM (inactive)
IC50 [9]: 16.7 µM (active)
EC50 [2]: > 53 µM (inactive)

COc1ccc(-c2nc(C(=O)N3CCN(C)CC3)sc2-c2ccc(OC)cc2)cc1 [FR-122047]
AC50 (Cytochrome P450 1A2): 31.6 µM (inconclusive)
AC50 (Cytochrome P450 2C9): 20 µM (inconclusive)
AC50 (Cytochrome P450 3A4): 7.94 µM (inconclusive)

C[C@@H]1CN([C@H](C)CO)C(=O)c2cc(NC(=O)Nc3ccc(F)cc3)ccc2O[C@@H](C)CCCCO[C@H]1CN(C)Cc1ccc(Cl)c(Cl)c1
AC50 (Paired box protein Pax-8): 9.51 µM (active)

COc1ccc(CNCCC(c2ccc(OC(C)C)cc2)c2ccccc2OC)cc1OC (centres undefined)
AC50 [5]: 5.37 µM (active)
AC50 [6]: 4.35 µM (active)
AC50 [7]: 19.1 µM (active)

C/C(=N\NC(=O)c1cccc(Cl)c1)c1cccc(NC(=O)C(C)C)c1
AC50 (Cytochrome P450 2D6): 28.2 µM (inconclusive)
AC50 (Cytochrome P450 3A4): 15.8 µM (inconclusive)

COc1cccc(=O)c2c(C)oc(C)c12
EC50 [3]: > 300 µM (not active)
EC50 [4]: > 300 µM (not active)

COc1ccc(NC(=O)C2Cc3c(-c4cccc(C(C)=O)c4)ccnc3O2)cc1OC (centres undefined)
AC50 [5]: 4.68 µM (active)
AC50 [6]: 0.799 µM (active)
AC50 [7]: 7.75 µM (active)

Clc1ccc2nncn2n1
IC50 [1]: > 47.1 µM (inactive)
EC50 [2]: > 53 µM (inactive)

S=C(Nc1ccc2c(c1)OCO2)Nc1ccccc1Cl
IC50 [1]: > 47.1 µM (inactive)
EC50 [2]: > 53 µM (inactive)

O=C(CCc1ccccc1)Nc1c(F)cccc1F
IC50 [1]: > 47.1 µM (inactive)
EC50 [2]: > 53 µM (inactive)

Cc1cc(C)c2c(CC(=O)Nc3nccs3)coc2c1
IC50 [1]: > 47.1 µM (inactive)
EC50 [2]: > 53 µM (inactive)

CCC(Oc1ccccc1)C(=O)Nc1ccccn1 (centres undefined)
EC50 [3]: > 300 µM (not active)
EC50 [4]: > 300 µM (not active)

CN1C(=O)C(=Cc2c[nH]c3ccccc23)C(=O)N(C)C1=O
EC50 [3]: 151 µM (active)
EC50 [4]: 52.9 µM (active)

C[C@@H](C(=O)O)/C(=C/c1ccc2c(c1)OCO2)C(=O)O
AC50 (Cytochrome P450 1A2): 0.316 µM (inconclusive)
AC50 (Cytochrome P450 3A4): 6.31 µM (inconclusive)

Cc1nn(CC(=O)NCc2ccccc2Cl)c(C)c1[N+](=O)[O-]
AC50 (Cytochrome P450 1A2): 12.6 µM (inconclusive)
AC50 (Cytochrome P450 2D6): 25.1 µM (inconclusive)
AC50 (Cytochrome P450 2C9): 12.6 µM (inconclusive)
AC50 (Cytochrome P450 3A4): 14.1 µM (inconclusive)

Cc1cccn2c(=O)c3cc(C(=O)NC4CCCC4)c(=N)n(CCc4ccccc4)c3nc12
EC50 [3]: > 300 µM (not active)
EC50 [4]: > 300 µM (not active)

Cc1nc(Nc2nc(CSc3nc4ccccc4[nH]3)cc(=O)[nH]2)nc2ccccc12
AC50 (Paired box protein Pax-8): 9.16 µM (active)

O=C(NCc1ccncc1)c1cc(F)c(F)cc1Cl
IC50 [1]: > 47.1 µM (inactive)
EC50 [2]: > 53 µM (inactive)

COc1cc(C2C(C#N)=C(N)Oc3[nH]nc(-c4ccccn4)c32)cc(OC)c1OC (centres undefined)
IC50 [1]: > 47.1 µM (inactive)
EC50 [2]: > 53 µM (inactive)

Cc1cc(/C=N/NC(=O)c2ccoc2C)cc(C)c1O
IC50 [1]: > 47.1 µM (inactive)
EC50 [2]: > 53 µM (inactive)

COc1ccc(NC(=O)/C=C/c2cccc(Br)c2)cn1
EC50 [3]: 12.4 µM (active)
EC50 [4]: 16 µM (active)

Cc1cc(NC(=O)CCN2CCN(C/C=C/c3ccccc3)CC2)ccc1Br
AC50 [5]: 15 µM (active)
AC50 [6]: 10.2 µM (active)
AC50 [7]: > 70 µM (inactive)

O=C(N/N=C/c1ccc(Cl)cc1)Nc1ccccc1
AC50 (Cytochrome P450 2C9): 25.1 µM (inconclusive)
AC50 (Cytochrome P450 3A4): 12.6 µM (inconclusive)

O=c1[nH]n(-c2ncnc3c2cnn3-c2ccccc2)c(=O)c2ccccc12
EC50 [3]: 7.26 µM (active)
EC50 [4]: 11.6 µM (active)

O=C(NC1CC1)c1ccc2c(c1)C1C3CCC(C3)C1C(c1ccccc1)N2 (centres undefined)
AC50 (Paired box protein Pax-8): 48.2 µM (active)

C=CCN1C(=O)NC(=O)/C(=C/c2c(CCN(C)C(=O)c3ccccc3)cc3c(c2OC)OCO3)C1=O
EC50 [3]: > 300 µM (not active)
EC50 [4]: > 300 µM (not active)
